# Reference: patent US11679111B2, “Fatty acid synthase inhibitors” (priority 2016, dated 2023)
# Where two headings read alike, the source gives them in different places.
# Experiments:
# HIV-1 [1] = type: cell-based
# Experimental: (A) TZM-bl cells were transfected with pNL4-3 provirus plasmid for 48 h in the presence or absence of 10 μM Fasnall or C75 or DMSO (0.01%). Intracellular expression of HIV-1 proteins was monitored by HIVIG-western blot, and β-actin was used as loading control. (B) Supernatant associated virion production was monitored using a p24 ELISA. (C) 48 hours post-transfection, cell culture supernatants were removed and incubated with fresh TZM-bl (indicator) cells for an additional 48 hrs. Values expressed as the mean±standard deviation, and are representative of three independent experiments. p-values were generated with student's t-test. Molecular weight markers (kD) indicated in right margin.
# To test further the hypothesis that HIV-1 replication requires FASN activity during the late stages of viral replication, TZM-bl or SupT1 (data not shown) cells were transfected with a HIV-1 provirus (pNL43) in the presence or absence of Fasnall or C75. […] Thus, FASN inhibition reduces nascent HIV-1 virion production without reducing HIV-1 protein synthesis.
# [2] = tested on: MCF7, MDA-MB-468, BT474 and SKBR3 cells; test: Proliferation assay (Hoechst DNA content), aggressive breast cancer cell lines; type: cell-based; details: MCF7, MDA-MB-468, BT474, SKBR3
# Experimental: MCF10A (5,000 cells/well), MCF7 (7,500 cells/well), MDA-MB-468 (5,000 cells/well), BT474 (7,500 cells/well), and SKBR3 (5,000 cells/well) were seeded in 96 well plates with 10% FBS 4 g/L glucose DMEM media except for MCF10A which was DMEM/F12 media. After 24 hours, cells were treated with different concentration of HS-106 or C75. Every 24 hours for five days, media from one of the plates was removed and plate was frozen at −80° C. After collecting all the time points, to each well 100 μl ddH2O was add and the plates were frozen again. Then 100 μI of Hoechst 33258 solution made in TNE buffer (1 μl from Hoechst stock (1 mg/ml in 1:4 DMSO:H20) in 1 ml of TNE (which contains 10 mM Tris, 2M NaCl and 1 mM Na2EDTA) and fluorescence was measured at Ex/Em: 355/460.
# HIV-1 [3] = details: for HIV-1 p24 production reduced by: PBMC
# Experimental: Primary cell experiments were approved by the Ohio State University Institutional Review Board, protocol #2014H0001. Peripheral blood mononuclear cells (PBMC) were isolated from healthy donor by Ficoll-Paque centrifugation, stimulated in complete RPMI 1640 medium (Gibco, Carlsbad, Calif.) containing 10% FBS, 100 μg/mL penicillin/streptomycin and supplemented with 5 μg/mL phytohemaglutinin (PHA; Gibco) for 48 h, and maintained thereafter in complete RPMI medium supplemented with 20U/mL of interleukin-2 (Gibco). PBMCs were seeded in 24-well plate (2×10^5 cells/well) and triplicate wells were treated with 10 or 50 μM C75, HS-106, or with DMSO and subsequently infected with 10 ng/mL p24 equivalents of HIV-1LucR-T2A virus, which is derived from NL4-3 (Edmonds et al., 2010). Cells were washed 24 h post infection. Supernatants were collected 4 days post infection and p24 content analyzed by quantitative ELISA (Zeptometrix).
# [4] = tested on: MMTV-Neu model of HER2+ breast cancer; test: Efficacy in MMTV-Neu model of HER2+ breast cancer; type: in vivo, mice; details: 30 pmol/kg IP biweekly, vehicle 29 days
# BT474 cells = test: Caspase 3/7 activity assay; type: cell-based; details: BT474, 24 hours
# Experimental: (§1) The assay was performed using a similar protocol to the one described by Fritz et al (Fritz et al., 2001). Cells were seeded at a density of 10,000 cells/well and treated with different concentrations of HS-106 or C75. After 24 hours, to each well, 50 μl of Caspase assay/lysis buffer (50 mM HEPES pH 7.5, 100 mM KCl, 5 mM EDTA, 10 mM MgC12, 10 mM CHAPS, 20% Sucrose, 10 mM DTT, 10 μM of (Z-DEVD)2-Rh110 (Santa Cruz Biotech) and complete protease inhibitor (Roche))was added. After 6 hours of incubation at 37° C., fluorescence was measured at Ex/Em: 485/535 nm.
# SKBR3 cells = test: Caspase 3/7 activity assay; type: cell-based; details: SKBR3, 24 hours
# Experimental: as §1
# [5] = tested on: FASN activity in HepG2 cells; test: [3H] glucose and acetate incorporation into lipids in HepG2 cells; type: cell-based; details: for EC50 / IC50: Homo sapiens
# Experimental: To specifically identify inhibitors of FASN targeting its nucleotide binding pockets Cibacron blue Sepharose was utilized. This medium has been used previously to purify NAD and NADP binding proteins from crude tissues extracts (Miyaguchi et al., 2011; Muratsubaki et al., 1994). FASN enriched extract from lactating pig mammary gland was bound to the resin and labeled with cysteine reactive fluorescein. […] Next, the molecules were tested for their ability to inhibit FASN activity in a HepG2 cell based assay that measured the incorporation of ^3H glucose into lipids (FIG. 1B and FIG. 9).
# Incorporation of radiolabeled glucose or acetate in total lipids was measured according to published methods (Haystead and Hardie, 1986). HepG2 cells (80% confluent in 12 wells plates) were starved overnight in MEM Alpha, the medium was then changed with DMEM medium containing 0.1 g/L glucose 10% FBS and 5 μM insulin and 1 μCi 3-[^3H] D-glucose or 1 μCi [^3H]-acetate in addition to different concentrations of each compound. After incubation for 1 hour at 37° C., 5% CO2, the cells were washed with ice cold PBS and detached by treating with 100 μl trypsin for 10 min then 1 ml of ice cold PBS was added. The cells suspension was then sonicated for 3 times in 30 seconds intervals and kept on ice. From each well 1 ml of cell lysate was added to a 4 ml scintillation vial and 2 ml of MicroScint-E was added. The vials were mixed thoroughly then centrifuged for 30 min at 3000 rpm and the ^3H radioactivity was measured by liquid scintillation counting.
# [6] = Cellular toxicity / viability in the TZM-bl model; details: human, TZM-bl cells
# Source text: (§2) The data presented are mean values (±SD) from three independent experiments. ** Indicates p<0.0001, treatment versus DMSO-treated control (Students t-test).
# TZM-bl cells = test: Cellular toxicity / viability in the TZM-bl model
# Source text: as §2
smiles,measurement,setting,value
"Cc1sc2ncnc(NC3CCN(Cc4ccccc4)C3)c2c1C (racemic) [HS-106, N-(1-benzylpyrrolidin-3-yI)-5,6-dimethylthieno[2,3-d]pyrimidin-4-amine]",HIV-1 p24 particle deposition into culture medium,"HIV-1 [1]; TZM-bl, 10 μM, 48 h",significantly reduce HIV-1 p24 particle deposition into culture medium
same,intracellular Gag levels,"HIV-1 [1]; TZM-bl, 10 μM, 48 h",did not reduce intracellular Gag levels
same,number of infectious HIV-1 particles,HIV-1 [1]; supernatants on fresh TZM-bl indicator cells,similarly reduced the number of infectious HIV-1 particles
same,inhibition of proliferation,[2],inhibited the proliferation of aggressive cell lines with similar potency to C75
same,HIV-1 p24 production reduced by,HIV-1 [3]; 10 μM,87%
same,HIV-1 p24 production reduced by,HIV-1 [3]; 50 μM,96%
same,reduction of HIV-1 p24 production,"HIV-1 [3]; primary PBMCs, 10 μM",approximately 10 fold
same,median survival,[4],63 days
same,caspase activity relative to MCF10A cells,BT474 cells,10 fold
same,caspase activity relative to MCF10A cells,SKBR3 cells,2 fold
same,inhibition of tritiated acetate incorporation into lipids,"[5]; FIG. 2D, cell line not stated",inhibit the incorporation of tritiated acetate into lipids
same,"rank among the 13 molecules tested, 3H glucose incorporation into lipids",[5]; HepG2 cells,most potent inhibitor
same,EC50,"[5]; HepG2, read-out: EC50, blockade of acetate incorporation into total lipids",147 nM
same,EC50,"[5]; HepG2, read-out: EC50, blockade of glucose incorporation into total lipids",213 nM
same,IC50,"[5]; HepG2, read-out: IC50, incorporation of tritiated acetate into lipids",147 nM
same,IC50,"[5]; HepG2, read-out: IC50, incorporation of tritiated glucose into lipids",213 nM
same,CC50,[6],10000 nM
same,TZM-bl cell viability (MTT-activity),TZM-bl cells,without significant effects on TZM-bl cell viability
